Experimental data published in patent US8633245B2, “PAI-1 inhibitor” (Institute of Medicinal Molecular Design, Inc., priority 2008, dated 2014).
Read-outs that look alike come from different tables or passages of the source.

Target: T1, recombinant human PAI-1 (Homo sapiens, UniProt P05121)
T1 construct: purchased Molecular Innovations, Inc
Assay: Test Example 2: human PAI-1 inhibitory activity (tPA fluorogenic substrate, pH 7.4 HEPES buffer)
Type: biochemical
Details: for inhibition at 0.3 µM / inhibition at 1 µM / inhibition at 3 µM: read-out: Inhibition Rate of PAI-1 Activity (%)
Description: 0.1 M HEPES, 0.1 M NaCl. 1 mM EDTA. 0.1% Polyethylene glycol 8,000 (Hampton Research Corporation),
2 mM Dimethyldecylphoshine oxide [Apo-10] (Fluka Corporation)

[1] = human PAI-1, calculated from the inhibition rates
[2] = human PAI-1, compound concentration 0.1 μM
[3] = human PAI-1, compound concentration 0.3 μM
[4] = human PAI-1, compound concentration 1 μM
[5] = human PAI-1, compound concentration 3 μM

T1 sequence (P05121 24-402): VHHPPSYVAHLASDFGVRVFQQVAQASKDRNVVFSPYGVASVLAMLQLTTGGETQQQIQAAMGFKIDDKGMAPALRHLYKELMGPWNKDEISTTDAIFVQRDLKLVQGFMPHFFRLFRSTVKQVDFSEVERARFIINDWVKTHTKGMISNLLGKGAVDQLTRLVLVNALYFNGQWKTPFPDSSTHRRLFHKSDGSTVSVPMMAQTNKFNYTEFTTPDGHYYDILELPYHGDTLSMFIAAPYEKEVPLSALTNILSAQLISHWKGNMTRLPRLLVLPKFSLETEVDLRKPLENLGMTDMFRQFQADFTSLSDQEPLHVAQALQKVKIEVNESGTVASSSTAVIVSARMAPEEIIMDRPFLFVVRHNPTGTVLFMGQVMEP

| Compound | Inhibition Rate of PAI-1 Activity (%) [2] [%] | Inhibition Rate of PAI-1 Activity (%) [3] [%] | Inhibition Rate of PAI-1 Activity (%) [4] [%] | Inhibition Rate of PAI-1 Activity (%) [5] [%] | also measured |
| --- | --- | --- | --- | --- | --- |
| O=C(O)C(=O)N(CCCCc1ccccc1)c1cc(-c2ccc(OC(F)(F)F)cc2)ccc1OCCC(F)(F)F [Compound 383] |  |  |  |  | IC50: 1340 nM |
| CCCCCCCCCOc1ccc(N(CCCCc2ccccc2)C(=O)C(=O)O)cc1-c1ccc(OC(F)(F)F)cc1 [Compound 387] |  |  |  |  | IC50: < 100 nM; inhibition at 0.3 µM: > 99%; inhibition at 1 µM: > 99%; inhibition at 3 µM: > 99% |
| CCCCCOc1cc(-c2cccc(C)c2)ccc1N(CCCCc1ccccc1)C(=O)C(=O)O [Compound 376] |  |  |  |  | IC50: 790 nM |
| CCCCCOc1ccc(-c2ccc(OC(F)(F)F)cc2)cc1N(CCCSc1ccccc1)C(=O)C(=O)O [Compound 357] |  |  |  |  | IC50 [1]: 770 nM; inhibition at 3 µM: > 99% |
| CCCCCOc1ccc(-c2ccc(OC(F)(F)F)cc2)cc1N(CCCCc1ccc(F)cc1)C(=O)C(=O)O [Compound 382] |  |  |  |  | IC50: 650 nM |
| CCCCCCCOc1cc(-c2ccc(OC(F)(F)F)cc2)cc(OCCCCCCC)c1OCC(=O)O [Compound 425] | 17 | 54 | >99 |  |  |
| CCCCCCC(Oc1cc(-c2ccc(OC(F)(F)F)cc2)ccc1Oc1ccc(C(C)(C)C)cc1)C(=O)O (centres unmarked) [Compound 323] |  |  |  |  | IC50 [1]: 490 nM |
| CCCCc1ccc(Oc2cc(-c3ccc(OC(F)(F)F)cc3)ccc2OCC(=O)O)cc1 [Compound 481] | 19 | 16 | 70 | >99 |  |
| CCCCCOc1cc(-c2ccc(OC(F)(F)F)cc2)ccc1N(CCCCc1ccccc1)C(=O)C(=O)O [Compound 367] |  |  |  |  | IC50: 900 nM |
| CCCCCOc1ccc(-c2ccc(OC(F)(F)F)cc2)cc1CN(CC(=O)O)c1ccc(C(C)(C)C)cc1 [Compound 647] | 27 | 43 | 95 | 98 |  |
| CC(C)c1ccc(-c2ccc(OCC(=O)O)c(Oc3ccc(C(C)(C)C)cc3)c2)cc1 [Compound 441] | 9 | 29 | 89 | 98 |  |
| CCCCC(Nc1cc(-c2ccc(OC(F)(F)F)cc2)ccc1Oc1ccc(C(C)(C)C)cc1)C(=O)O (centres unmarked) [Compound 423] | 1 | 1 | 74 | 96 |  |
| CCCCCOc1cc(-c2ccc(OC(F)(F)F)cc2)cc(OCCCCC)c1OCC(=O)O [Compound 424] | 0 | 4 | 38 | >99 |  |
| CCCCCOc1ccc(-c2ccc(OC(F)(F)F)cc2)cc1N(CCCCOc1ccccc1)C(=O)C(=O)O [Compound 374] |  |  |  |  | IC50: 880 nM; inhibition at 3 µM: > 99% |
| CC(C)(C)c1ccc(COc2ccc(N3CCN(c4ccc(OC(F)(F)F)cc4)CC3)cc2CCC(=O)O)cc1 [Compound 419] |  |  | 41 | 93 | Inhibition Rate of PAI-1 Activity (%) (human PAI-1, compound concentration 10 μM): 98%; Inhibition Rate of PAI-1 Activity (%) (human PAI-1, compound concentration 25 μM): >99% |
| CC(C)(C)c1ccc(Oc2cc(Oc3ccc(OC(F)(F)F)cc3)ccc2OCC(=O)O)cc1 [Compound 538] | 0 | 12 | 87 | 98 |  |

| Compound | Inhibition Rate of PAI-1 Activity (%) [2] [%] | Inhibition Rate of PAI-1 Activity (%) [3] [%] | Inhibition Rate of PAI-1 Activity (%) [4] [%] | Inhibition Rate of PAI-1 Activity (%) [5] [%] | also measured |
| --- | --- | --- | --- | --- | --- |
| CC(C)(C)c1cccc(Oc2cc(-c3ccc(OC(F)(F)F)cc3)ccc2/C=C/C(=O)O)c1 [Compound 335] |  |  |  |  | IC50 [1]: 740 nM; inhibition at 3 µM: > 99% |
| CCCCCOc1ccc(-c2cccc(OC(F)(F)F)c2)cc1N(CCCCc1ccccc1)C(=O)C(=O)O [Compound 391] |  |  |  |  | IC50: 780 nM |
| CCCCCOc1ccc(-c2ccc(OCC(=O)O)c(Oc3ccc(C(C)(C)C)cc3)c2)cc1 [Compound 440] | 0 | 3 | 96 | >99 |  |
| CC(C)(C)c1ccc(-c2ccc(/C=C/C(=O)O)c(Oc3ccc(OC(F)(F)F)cc3)c2)cc1 [Compound 478] | 11 | 33 | 90 | >99 |  |
| CCCCC(Oc1cc(-c2ccc(OC(F)(F)F)cc2)ccc1Oc1ccccc1)C(=O)O (centres unmarked) [Compound 307] |  |  |  |  | IC50 [1]: 1530 nM |
| CC(C)(C)c1cccc(Oc2ccc(-c3ccc(OC(F)(F)F)cc3)cc2/C=C/C(=O)O)c1 [Compound 437] | 0 | 12 | 67 | 98 |  |
| CCC(CC)Oc1ccc(-c2ccc(/C=C/C(=O)O)c(Oc3ccc(C(C)(C)C)cc3)c2)cc1 [Compound 521] | 25 | 82 | >99 | >99 |  |
| CC(C)(C)c1ccc(Oc2cc(-c3cccc(OC(F)(F)F)c3)ccc2/C=C/C(=O)O)cc1 [Compound 503] | 13 | 27 | 97 | 93 |  |
| O=C(O)/C=C/c1cc(-c2ccc(OC(F)(F)F)cc2)ccc1OCCCCCOc1ccc(-c2ccc(OC(F)(F)F)cc2)cc1/C=C/C(=O)O [Compound 543] | 0 | 1 | 73 | 94 |  |
| CC(C)(C)c1ccc(Oc2cc(-c3ccc(OC(F)(F)F)cc3)ccc2NCC(=O)O)cc1 [Compound 442] | 1 | 4 | 83 | >99 |  |
| CCCCC(Oc1cc(-c2cccc(C(F)(F)F)c2)ccc1Oc1ccc(C(C)(C)C)cc1)C(=O)O (centres unmarked) [Compound 318] |  |  |  |  | IC50 [1]: 580 nM |
| CCCCN(CC(=O)O)c1cc(-c2ccc(OC(F)(F)F)cc2)ccc1OCCCCc1ccccc1 [Compound 433] | 13 | 6 | 41 | 98 |  |
| CCCCCOc1cc(-c2ccc(OC(F)(F)F)cc2)cc(OCc2ccc(C(C)(C)C)cc2)c1OCC(=O)O [Compound 301] |  |  |  |  | IC50 [1]: 470 nM |
| CCCCC(Oc1ccc(-c2ccc(OC(F)(F)F)cc2)cc1Oc1ccc(C(C)(C)C)cc1)C(=O)O (centres unmarked) [Compound 305] |  |  |  |  | IC50 [1]: 940 nM |
| CCCCCCCCCCCCCCCOc1cc(-c2ccc(OC(F)(F)F)cc2)ccc1N(CCCCc1ccccc1)C(=O)C(=O)O [Compound 385] |  |  |  |  | IC50: < 100 nM; inhibition at 0.3 µM: > 99%; inhibition at 1 µM: > 99%; inhibition at 3 µM: > 99% |
| O=C(O)C(=O)N(Cc1ccc2ccccc2c1)c1ccc(-c2ccc(OC(F)(F)F)cc2)cc1 [Compound 661] | 6 | 11 | 27 | >99 |  |

Now from value to compound, other results behind:

| Inhibition Rate of PAI-1 Activity (%) [2] [%] | Inhibition Rate of PAI-1 Activity (%) [3] [%] | Inhibition Rate of PAI-1 Activity (%) [4] [%] | Inhibition Rate of PAI-1 Activity (%) [5] [%] | Compound | also measured |
| --- | --- | --- | --- | --- | --- |
| 12 | 59 | >99 | >99 | CC(C)(C)c1ccc(Oc2cc(Nc3ccc(OC(F)(F)F)cc3)ccc2CCC(=O)O)cc1 [Compound 532] |  |
| 25 | 83 | 97 | 97 | CCCCN(CC(=O)O)c1ccc(-c2ccc(OC(F)(F)F)cc2)cc1Oc1ccc(C(C)(C)C)cc1 [Compound 533] |  |
| 5 | 20 | >99 | >99 | O=C(O)COc1ccc(-c2ccc(OC(F)(F)F)cc2)cc1Oc1ccc(OCc2ccccc2)cc1 [Compound 492] |  |
| 1 | 12 | 87 | >99 | CC(C)(C)c1ccc(Oc2cc(Nc3ccc(OC(F)(F)F)cc3)ccc2OCC(=O)O)cc1 [Compound 536] |  |
| 1 | 4 | 44 | >99 | Cc1cc(C)cc(-c2ccc(CCC(=O)O)c(Oc3ccc(C(C)(C)C)cc3)c2)c1 [Compound 498] |  |
| 1 | 27 | 62 | 97 | CC(C)(C)c1ccc(Oc2cc(OCC(=O)O)cc(-c3ccc(OC(F)(F)F)cc3)c2)cc1 [Compound 427] |  |
| 15 | 20 | 99 | >99 | CCCCCN(C(=O)C(=O)O)c1cc(-c2ccc(OC(F)(F)F)cc2)ccc1OCCCOc1ccccc1 [Compound 657] |  |
| 0 | 16 | 95 | >99 | CC(C)(C)c1ccc(Sc2cc(-c3ccc(OC(F)(F)F)cc3)ccc2C(=O)C(=O)O)cc1 [Compound 548] |  |
| 0 | 0 | 77 | >99 | CC(C)(C)c1ccc(Oc2ccc(Nc3ccc(OC(F)(F)F)cc3)cc2/C=C/C(=O)O)cc1 [Compound 431] |  |
| 11 | 68 | >99 | >99 | CCCCc1ccc(Oc2cc(-c3ccc(OC(F)(F)F)cc3)ccc2/C=C/C(=O)O)cc1 [Compound 511] |  |
